Values after ≈ are worked out from the molar mass of the structure shown. Active and inactive are the calls of the source. The calls are words filed in the database; no cut-off is given here.
Experiments:
[1] = biological target: Non-receptor tyrosine-protein kinase TYK2 (Homo sapiens, UniProt P29597); assay: Inhibition of TYK2 (unknown origin) using FAM-labeled peptide as substrate preincubated for 10 mins followed by substrate addition and measured after 25 mins in presence of ATP
[2] = biological target: T1, Tyrosine-protein kinase JAK2 (Homo sapiens, UniProt O60674); assay: Inhibition of JAK2 (unknown origin) using FAM-labeled peptide as substrate preincubated for 10 mins followed by substrate addition and measured after 25 mins in presence of ATP
Histone deacetylase 1 = Histone deacetylase 1 (Homo sapiens, UniProt Q13547); assay: Inhibition of full length human recombinant HDAC1 expressed in baculovirus expression system using (Ac-Leu-Gly-Lys(Ac)-AMC as substrate preincubated for 5 mins followed by substrate addition and measured after 30 mins by fluorescence assay
HL-60 = assay: Antiproliferative activity against human HL60 cells after 48 hrs by CCK-8 assay; format: functional, cell-based; details: HL-60, 48 h
K562 = assay: Antiproliferative activity against human K562 cells after 48 hrs by CCK-8 assay; format: functional, cell-based; details: K562, 48 h
HEL [3] = assay: Induction of apoptosis in human HEL cells at 10 uM after 48 hrs by Annexin-V-FITC/propidium iodide staining based flow cytometry relative to control; format: functional
HEL [4] = assay: Cell cycle arrest in human HEL cells assessed as accumulation at S phase at 5 uM after 48 hrs propidium iodide staining based flow cytometry relative to control; format: functional
[5] = biological target: Tyrosine-protein kinase JAK1 (Homo sapiens, UniProt P23458); assay: Inhibition of JAK1 (unknown origin) using FAM-labeled peptide as substrate preincubated for 10 mins followed by substrate addition and measured after 25 mins in presence of ATP
[6] = biological target: T2, Tyrosine-protein kinase JAK3 (Homo sapiens, UniProt P52333); assay: Inhibition of JAK3 (unknown origin) using FAM-labeled peptide as substrate preincubated for 10 mins followed by substrate addition and measured after 25 mins in presence of ATP
T2 sequence (P52333 whole entry): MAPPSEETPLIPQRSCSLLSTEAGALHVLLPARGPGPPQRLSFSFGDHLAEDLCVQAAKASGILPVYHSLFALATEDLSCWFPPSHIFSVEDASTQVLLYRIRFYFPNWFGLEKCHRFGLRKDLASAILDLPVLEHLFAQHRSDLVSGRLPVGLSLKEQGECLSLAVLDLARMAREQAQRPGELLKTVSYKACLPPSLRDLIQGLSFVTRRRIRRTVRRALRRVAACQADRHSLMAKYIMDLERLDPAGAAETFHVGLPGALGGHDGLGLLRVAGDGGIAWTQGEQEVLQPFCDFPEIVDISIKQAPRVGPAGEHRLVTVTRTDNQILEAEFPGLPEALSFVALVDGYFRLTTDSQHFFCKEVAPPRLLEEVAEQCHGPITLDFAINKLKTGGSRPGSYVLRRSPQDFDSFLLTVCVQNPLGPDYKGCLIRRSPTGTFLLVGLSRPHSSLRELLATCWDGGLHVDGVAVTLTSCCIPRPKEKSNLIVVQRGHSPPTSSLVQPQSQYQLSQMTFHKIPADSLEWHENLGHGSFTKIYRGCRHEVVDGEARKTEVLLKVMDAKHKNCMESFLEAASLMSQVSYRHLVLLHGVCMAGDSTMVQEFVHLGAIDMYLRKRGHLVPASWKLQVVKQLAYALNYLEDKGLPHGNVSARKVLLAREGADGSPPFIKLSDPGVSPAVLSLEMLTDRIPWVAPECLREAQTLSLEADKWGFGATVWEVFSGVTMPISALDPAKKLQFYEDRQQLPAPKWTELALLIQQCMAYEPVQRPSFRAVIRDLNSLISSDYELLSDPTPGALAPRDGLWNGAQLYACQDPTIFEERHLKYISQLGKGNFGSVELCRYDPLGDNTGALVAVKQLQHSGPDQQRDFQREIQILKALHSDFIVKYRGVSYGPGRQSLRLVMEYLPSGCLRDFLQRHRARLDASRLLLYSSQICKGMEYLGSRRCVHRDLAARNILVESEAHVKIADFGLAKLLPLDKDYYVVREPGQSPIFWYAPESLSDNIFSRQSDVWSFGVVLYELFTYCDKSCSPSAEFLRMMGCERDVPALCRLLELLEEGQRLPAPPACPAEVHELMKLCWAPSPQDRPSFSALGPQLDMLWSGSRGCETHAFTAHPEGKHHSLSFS

Candida albicans [7] = assay: Antifungal activity against FLC resistant Candida albicans 100 after 48 hrs by checkerboard microdilution method; format: functional; details: Candida albicans, 100, 48 h
Candida albicans [8] = assay: microbe, parasite or virus in culture; format: functional; details: Candida albicans, 100, 48 h
Description: Antifungal activity against FLC resistant Candida albicans 100 assessed as fluconazol MIC50 after 48 hrs by checkerboard microdilution method

Candida albicans [9] = assay: Antifungal activity against FLC resistant Candida albicans 100 after 48 hrs in presence of fluconazol by checkerboard microdilution method; format: functional; details: Candida albicans, 100, 48 h
Candida albicans [10] = assay: microbe, parasite or virus in culture; format: functional; details: Candida albicans, 0710922, 48 h
Description: Antifungal activity against FLC resistant Candida albicans 0710922 assessed as fluconazol MIC50 after 48 hrs by checkerboard microdilution method

Candida albicans [11] = assay: microbe, parasite or virus in culture; format: functional; details: Candida albicans, 0710922, 48 h; remark: listed apart in the source
Description: Antifungal activity against FLC resistant Candida albicans 0710922 after 48 hrs in presence of fluconazol by checkerboard microdilution method

Candida albicans [12] = assay: Synergistic antifungal activity against FLC resistant Candida albicans 100 assessed as FIC index after 48 hrs by checkerboard microdilution method; format: functional
[13] = biological target: Histone deacetylase (Homo sapiens) (UniProt Q13547+O15379+Q9UBN7+Q92769+Q9UQL6+Q8WUI4+Q9BY41+Q96DB2+P56524+Q9UKV0+Q969S8); assay: Inhibition of HDAC in human HEL cells assessed as increased in histone H3 acetylation after 24 hrs by Western blot analysis; format: cell-based
[14] = biological target: T1, Tyrosine-protein kinase JAK2; assay: Inhibition of JAK2 in human HEL cells assessed as decrease in STAT5 phosphorylation after 24 hrs by Western blot analysis; format: cell-based
Mus musculus [15] = assay: Protection against spleen enlargement in SCID mouse xenografted with human HEL cells at 10 mg/kg, ip qd; format: functional, organism-based
HEL [16] = assay: Antitumor activity in human HEL cells xenografted in SCID mouse assessed as increase in mouse survival at 10 mg/kg, ip qd measured up to 40 days; format: functional, organism-based
HEL [17] = assay: Antitumor activity in human HEL cells xenografted in SCID mouse assessed as mouse survival time at 10 mg/kg, ip qd; format: functional
[18] = Half life in ICR mouse liver microsomes at 1 uM measured up to 45 mins in presence of NADPH by LC-MS/MS analysis; format: ADME, microsome
Mus musculus [19] = assay: In vivo antifungal activity against FLC resistant Candida albicans 0304103 infected in ICR mouse assessed as mouse survival at 5 mg/kg, ip qd up to 20 days in co-treated with 1 mg/kg, ip qd fluconazol (reference value: 4.5 day); format: functional
HEL [20] = assay: Cell cycle arrest in human HEL cells assessed as accumulation at G2/M phase at 1 uM after 48 hrs propidium iodide staining based flow cytometry (reference value: 9.32%); format: functional
HEL [21] = assay: Cell cycle arrest in human HEL cells assessed as accumulation at G2/M phase at 5 uM after 48 hrs propidium iodide staining based flow cytometry (reference value: 9.31%); format: functional

Sequence of Non-receptor tyrosine-protein kinase TYK2 (P29597 whole entry): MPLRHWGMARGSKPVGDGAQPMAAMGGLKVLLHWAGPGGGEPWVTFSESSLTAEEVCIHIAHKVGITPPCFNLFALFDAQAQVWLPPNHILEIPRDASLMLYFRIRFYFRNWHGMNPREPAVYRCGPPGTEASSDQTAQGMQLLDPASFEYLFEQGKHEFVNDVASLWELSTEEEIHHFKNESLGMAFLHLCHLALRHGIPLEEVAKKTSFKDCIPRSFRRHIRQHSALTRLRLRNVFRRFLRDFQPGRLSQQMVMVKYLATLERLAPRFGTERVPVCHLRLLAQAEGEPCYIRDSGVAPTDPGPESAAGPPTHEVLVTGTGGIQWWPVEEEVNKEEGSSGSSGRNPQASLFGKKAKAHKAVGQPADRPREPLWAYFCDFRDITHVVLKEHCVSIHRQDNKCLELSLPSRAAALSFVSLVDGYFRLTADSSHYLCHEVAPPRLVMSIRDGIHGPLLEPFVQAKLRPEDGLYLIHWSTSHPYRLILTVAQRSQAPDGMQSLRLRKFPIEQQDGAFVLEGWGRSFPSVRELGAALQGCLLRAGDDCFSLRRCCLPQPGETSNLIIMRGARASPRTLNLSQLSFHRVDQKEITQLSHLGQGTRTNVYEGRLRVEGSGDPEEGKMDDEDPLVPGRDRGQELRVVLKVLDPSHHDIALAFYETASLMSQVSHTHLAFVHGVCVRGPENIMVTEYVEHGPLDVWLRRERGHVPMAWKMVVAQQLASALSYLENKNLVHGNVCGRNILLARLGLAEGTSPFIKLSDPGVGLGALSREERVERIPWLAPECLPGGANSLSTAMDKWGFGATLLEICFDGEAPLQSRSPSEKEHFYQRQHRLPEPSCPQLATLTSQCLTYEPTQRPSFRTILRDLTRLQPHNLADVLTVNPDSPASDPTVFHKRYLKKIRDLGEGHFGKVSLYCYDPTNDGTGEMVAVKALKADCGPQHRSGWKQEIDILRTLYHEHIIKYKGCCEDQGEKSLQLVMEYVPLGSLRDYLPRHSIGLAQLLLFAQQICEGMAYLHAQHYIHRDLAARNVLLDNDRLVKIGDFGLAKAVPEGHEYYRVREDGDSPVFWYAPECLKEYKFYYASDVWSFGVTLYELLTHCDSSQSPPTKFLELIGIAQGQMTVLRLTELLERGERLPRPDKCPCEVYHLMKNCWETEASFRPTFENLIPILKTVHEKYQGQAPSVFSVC
T1 sequence (O60674 whole entry): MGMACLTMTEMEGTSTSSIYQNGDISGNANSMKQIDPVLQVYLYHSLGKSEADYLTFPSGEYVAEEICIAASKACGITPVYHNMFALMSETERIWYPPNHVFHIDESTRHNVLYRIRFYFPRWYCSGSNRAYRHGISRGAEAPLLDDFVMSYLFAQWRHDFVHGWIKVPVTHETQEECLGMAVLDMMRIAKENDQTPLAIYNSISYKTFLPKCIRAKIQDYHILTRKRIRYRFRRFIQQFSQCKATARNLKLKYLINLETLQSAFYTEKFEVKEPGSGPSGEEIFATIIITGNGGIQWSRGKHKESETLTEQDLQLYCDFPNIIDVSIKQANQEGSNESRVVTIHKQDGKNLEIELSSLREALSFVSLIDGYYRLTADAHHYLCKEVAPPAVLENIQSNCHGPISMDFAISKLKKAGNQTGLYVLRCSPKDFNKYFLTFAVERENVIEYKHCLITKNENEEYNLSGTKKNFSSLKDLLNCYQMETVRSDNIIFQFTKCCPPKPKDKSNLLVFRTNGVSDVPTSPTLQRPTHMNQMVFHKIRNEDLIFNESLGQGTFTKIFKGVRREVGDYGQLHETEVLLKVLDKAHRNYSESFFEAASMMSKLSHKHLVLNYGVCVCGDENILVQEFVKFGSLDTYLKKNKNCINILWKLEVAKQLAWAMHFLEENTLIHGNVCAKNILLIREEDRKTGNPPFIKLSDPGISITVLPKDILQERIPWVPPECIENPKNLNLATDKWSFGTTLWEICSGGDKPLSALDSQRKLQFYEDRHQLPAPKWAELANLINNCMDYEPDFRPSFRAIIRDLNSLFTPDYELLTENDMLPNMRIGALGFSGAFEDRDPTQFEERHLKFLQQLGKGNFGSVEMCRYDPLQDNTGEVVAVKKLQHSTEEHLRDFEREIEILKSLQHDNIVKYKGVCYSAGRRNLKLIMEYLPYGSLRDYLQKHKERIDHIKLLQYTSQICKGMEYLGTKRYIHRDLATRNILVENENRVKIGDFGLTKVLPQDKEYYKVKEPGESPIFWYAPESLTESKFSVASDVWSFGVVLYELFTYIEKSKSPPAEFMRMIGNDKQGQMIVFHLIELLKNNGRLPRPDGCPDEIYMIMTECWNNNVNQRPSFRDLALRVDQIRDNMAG
Sequence of Histone deacetylase 1 (Q13547 whole entry): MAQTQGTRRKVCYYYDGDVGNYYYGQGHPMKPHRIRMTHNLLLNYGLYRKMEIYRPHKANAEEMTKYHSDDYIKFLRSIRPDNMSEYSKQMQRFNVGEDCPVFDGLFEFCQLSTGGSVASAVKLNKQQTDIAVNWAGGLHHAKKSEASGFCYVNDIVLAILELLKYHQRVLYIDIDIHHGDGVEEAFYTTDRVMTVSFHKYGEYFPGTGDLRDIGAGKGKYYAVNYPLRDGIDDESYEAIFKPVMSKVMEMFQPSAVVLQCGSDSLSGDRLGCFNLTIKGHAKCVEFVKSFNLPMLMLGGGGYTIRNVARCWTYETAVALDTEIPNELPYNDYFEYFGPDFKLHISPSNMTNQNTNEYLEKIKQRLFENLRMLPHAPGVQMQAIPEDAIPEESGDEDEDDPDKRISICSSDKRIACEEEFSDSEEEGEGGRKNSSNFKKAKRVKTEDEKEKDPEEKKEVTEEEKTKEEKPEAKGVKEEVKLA
Sequence of Tyrosine-protein kinase JAK1 (P23458 whole entry): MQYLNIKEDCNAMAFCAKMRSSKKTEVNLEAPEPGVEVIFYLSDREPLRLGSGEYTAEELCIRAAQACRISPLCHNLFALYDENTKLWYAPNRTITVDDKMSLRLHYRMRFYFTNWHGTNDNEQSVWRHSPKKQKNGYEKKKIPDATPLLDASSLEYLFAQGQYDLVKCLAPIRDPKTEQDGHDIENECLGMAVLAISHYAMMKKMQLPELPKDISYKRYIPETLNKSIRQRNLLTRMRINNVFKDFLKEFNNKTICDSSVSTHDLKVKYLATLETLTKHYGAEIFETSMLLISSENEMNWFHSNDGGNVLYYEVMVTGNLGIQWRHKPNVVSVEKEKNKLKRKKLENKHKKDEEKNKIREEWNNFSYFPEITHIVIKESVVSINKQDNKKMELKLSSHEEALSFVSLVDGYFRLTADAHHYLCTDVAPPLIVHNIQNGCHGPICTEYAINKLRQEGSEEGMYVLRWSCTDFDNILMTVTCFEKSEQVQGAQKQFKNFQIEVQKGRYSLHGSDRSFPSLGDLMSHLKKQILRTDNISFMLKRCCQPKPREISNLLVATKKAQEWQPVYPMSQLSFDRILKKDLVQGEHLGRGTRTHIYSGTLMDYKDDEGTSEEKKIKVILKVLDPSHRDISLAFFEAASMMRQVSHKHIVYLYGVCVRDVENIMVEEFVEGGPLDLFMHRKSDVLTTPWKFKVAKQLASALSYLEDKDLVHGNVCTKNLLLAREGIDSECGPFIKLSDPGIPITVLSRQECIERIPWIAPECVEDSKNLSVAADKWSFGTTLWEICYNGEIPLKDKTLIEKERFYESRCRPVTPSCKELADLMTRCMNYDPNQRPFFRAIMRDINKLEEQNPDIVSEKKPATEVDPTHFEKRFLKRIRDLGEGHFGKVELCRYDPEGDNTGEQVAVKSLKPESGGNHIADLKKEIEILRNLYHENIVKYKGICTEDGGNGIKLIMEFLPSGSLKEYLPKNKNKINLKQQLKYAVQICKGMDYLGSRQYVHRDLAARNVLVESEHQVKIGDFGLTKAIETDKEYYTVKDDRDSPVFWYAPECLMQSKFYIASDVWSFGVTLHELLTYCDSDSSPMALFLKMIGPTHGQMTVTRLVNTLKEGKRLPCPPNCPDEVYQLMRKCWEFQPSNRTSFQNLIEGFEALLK

| SMILES | IC50 [1] [nM] | IC50 [2] [nM] | IC50 (Histone deacetylase 1) [nM] | IC50 (HL-60) [µM] | IC50 (K562) [µM] | Activity (HEL [3]) [%] | IC50 [5] [nM] | IC50 [6] [nM] | MIC50 (Candida albicans [7]) [µg/mL] | MIC50 (Candida albicans [8]) [µg/mL] | MIC50 (Candida albicans [9]) [µg/mL] | MIC50 (Candida albicans [10]) [µg/mL] | MIC50 (Candida albicans [11]) [µg/mL] | fractional inhibitory concentration index (FICI) (Candida albicans [12]) | inhibition [13] | inhibition [14] | Activity (Mus musculus [15]) | Activity (HEL [16]) | half-life at 1 µM [18] [min] | MST (Mus musculus [19]) [days] | other results |
| --- | --- | --- | --- | --- | --- | --- | --- | --- | --- | --- | --- | --- | --- | --- | --- | --- | --- | --- | --- | --- | --- |
| O=C(NO)c1ccc(-c2ccnc(Nc3ccc(N4CCOCC4)cc3)n2)cc1 | 419 | 85 | 160 | 6.1 | 4 | 86.2 | 69 | 517 | > 64 | 0.5 (≈ 1.28 µM) | 8 | 1 (≈ 2.55 µM) | 16 (≈ 40.9 µM) | 0.13 | Dose-dependent effect | Dose-dependent effect | Active | Active | 16.5 | 11 | Activity (HEL [4]): 18.9%; Survival (HEL [17]): 27 days |
| CS(=O)(=O)Nc1ccc(-c2ccnc(Nc3ccc(N4CCC(C(=O)Nc5ccc(/C=C/C(=O)NO)cc5)CC4)cc3)n2)cc1 | 46 | 8 | 250 | 1.5 | 8.7 | 70.62 | 359 | 121 | > 64 | 0.5 (≈ 0.797 µM) | 4 | 1 (≈ 1.59 µM) | 8 (≈ 12.7 µM) | 0.07 | Dose-dependent effect | Dose-dependent effect | Active | Active | 19.4 | 11.5 | Activity (HEL [20]): 11.75%; Activity (HEL [21]): 28.14% |
| CS(=O)(=O)Nc1ccc(-c2ccnc(Nc3ccc(N4CCC(C(=O)NCCCCCCCC(=O)NO)CC4)cc3)n2)cc1 | 74 | 2 | 18 | > 50 | 5.9 | 89.2 | 76 | 144 | > 64 | 0.5 (≈ 0.802 µM) | 8 | 0.25 (≈ 0.401 µM) | 16 (≈ 25.7 µM) | 0.13 | Dose-dependent effect | Dose-dependent effect | Active | Active | 15.7 | 13 | Activity (HEL [20]): 8.23%; Activity (HEL [21]): 8.12%; Activity (HEL [4]): 34.37%; Survival (HEL [17]): 27 days |

— ChEMBL document CHEMBL4145634, “Discovery of Janus Kinase 2 (JAK2) and Histone Deacetylase (HDAC) Dual Inhibitors as a Novel Strategy for the Combinational Treatment of Leukemia and Invasive Fungal Infections” (J Med Chem, 2018)
